The subject of one data set is C57BL/6JCrl mice. Kind of data set: Noise-induced hearing loss in mice, auditory brainstem response (ABR) thresholds. The format is in vivo. The note with it: 24 h after noise exposure (105 dB, 30 min); QN23 2 mg/kg every 12 h intraperitoneally for 3 days, started 1 h before noise; vs vehicle; click and pure tones 4-32 kHz. As for the experimental part: The experiments were carried out in C57BL/6JCrl mice, male or female, aged 1.5 months at the beginning of the study.
Noise exposure was performed inside a reverberation chamber. The animals were exposed to 105 dB SL for 30 minutes (Sanz L, Murillo-Cuesta S, Cobo P, Cediel-Algovia R, Contreras J, Rivera T, Varela-Nieto I, Avendaño C. Swept-sine noise-induced damage as a hearing loss model for preclinical assays. Front Aging Neurosci. 2015 Feb. 16; 7:7).
Auditory function was assessed by recording auditory brainstem evoked potentials (ABR) at baseline and after noise exposure (1 day, 14 days and 28 days after exposure), according to protocol described in (Murillo-Cuesta S, Contreras J, Zurita E, Cediel R, Cantero M, Varela-Nieto I, Montoliu L. Melanin precursors prevent premature age-related and noise-induced hearing loss in albino mice. Pigment Cell Melanoma Res. 2010 February; 23 (1): 72-83. doi: 10.1111/j.1755-148X.2009.00646.x. Epub 2009 Oct. 19).
The nitrone QN23 was prepared as described in WO2020/074666. The solution for its administration was always performed at the time of use by dissolving it under vigorous stirring in a mixture of ethanol, polyethylene glycol (PEG400, Sigma) and saline (1:200:60, V/V), until a stock solution of concentration 3.6 mg/ml was obtained. […]

Data set [1] has as its system HEI-OC1 mouse auditory cells. Nature of the data set: XTT cell viability assay in HEI-OC1 auditory cells with or without H2O2. Type of data set: cell-based. How it is done:
QN23 nitrone was tested in cell cultures of HEI-OC1 mouse auditory cells derived from the Immortomouse™ postnatal organ of Corti following protocols published by the group (Cervantes et al., J Clin Med. 2019 Sep. 14; 8 (9): 1464). HEI-OC1 cells were cultured in DMEM medium supplemented with 10% fetal bovine serum (Gibco), without antibiotics.
Cells were treated with different doses of QN23 (10-50-100-150-200 μM) and with or without 1.2 mM H2O2. Cell viability was studied by XTT assay. Absorbance measurements at 450 and 660 nm were taken with the VERSAmax plate reader at 4 h, 6 h and 23 h after addition of XTT reagents. Viability results were calculated following the formula: Specific absorbance=[Abs450 nm (test)−Abs450 nm (blank)]−Abs660 nm (test). The wells without cells in the respective treatments were used as blanks. Data are represented as mean±SEM, considering the untreated control as 100% viability. Results are from 3 independent experiments and 7 wells/condition/experiment for QN23 nitrone without H2O2 treatment (A-C) or with treatment (D-E). Statistical significance was calculated by Student's test: *p<0.05; **p<0.01; ***p<0.001 in comparison vs. untreated control with QN23. […] After the exposure to H2O2, the cell viability was reduced about 50% due to the cell death associated to the oxidative damage caused by H2O2.
The inventors also compared the effect of QN23 with N-acetylcysteine (NAC). To that end, QN23 nitrone was dissolved in absolute EtOH≥99.5% (#107017; Merck) and tested in vitro in a dose range of 10-200 μM. Cells were treated with increasing doses of H2O2 (1-1.4 mM; Merck).
N-acetylcysteine (NAC) (0.5 mM; Sigma) was used as a reference antioxidant treatment. NAC is a prodrug of L-cysteine, itself a precursor of the biological antioxidant glutathione, among other intracellular actions (Ezerina et al., Cell Chem Biol. 2018 Apr. 19; 25 (4): 447-459.e4). Cells were treated with increasing doses of H2O2 (0.8-1.6 mM).
In both cases, survival curves were performed using the CyQUANT™ XTT cell viability assay (#X12223; Invitrogen) after 2 hours of the administration of QN23 or NAC.
Phenyl N-t-butylnitrone≥98% C6H5CH═N(O)C(CH3)3, PBN) (Sigma-Aldrich, catalogue number B7263) was dissolved as indicated by the manufacturer in Dimethyl sulfoxide (DMSO). DMSO was used as a solvent and had no detectable effects at the dose used (up to 0.1%). A solution 50 uM was prepared to determine the protective effect.
Cell culture, treatments with PBN and XTT assays were performed as already reported for QN23 in sections above.

With `COc1ccc2nc(Cl)c(/C=[N+](\[O-])C(C)(C)C)cc2c1` [QN23, (Z)—N-tert-butyl-1-(2-chloro-6-methoxyquinolin-3-yl)methanimine oxide], the “Auditory Brainstem Response thresholds after noise exposure” value in the data set on C57BL/6JCrl mice is recorded as “significantly lower thresholds than those receiving vehicle”. The “Cell viability at low H2O2 concentration (early stages of cell deterioration)” value in data set [1] (50 μM QN23, 0.8 mM H2O2, 2 h) is reported as “enhancement of cell viability even at concentrations as low as 0.8 mM H2O2”. Besides, in data set [1] (50 μM QN23, H2O2 0.8-1.6 mM, 2 h), the “Protective effect on cell viability at increasing doses of H2O2” value was “cell viability superior at all H2O2 concentrations tested”. Also, the “Toxicity to cells (cell viability without H2O2)” value in data set [1] (QN23 10-200 μM for 2 h, without H2O2, XTT read at 4, 6 and 23 h) is listed as “not toxic to the cells”. The “Cell viability after exposure to H2O2” value in data set [1] (QN23 10-50-100-150-200 μM with 1.2 mM H2O2 for 2 h, vs non-treated control group) was “significantly increased cell viability at all the doses tested”.
On to `CC(C)(C)[N+]([O-])=Cc1ccccc1` [PBN, Phenyl N-t-butylnitrone, reference compound], for which the “Protective effect on cell viability at increasing doses of H2O2” value in data set [1] (50 μM PBN, without or with increasing doses of H2O2, 2 h, XTT read at 4 and 6 h, 1 experiment) is “no protection was observed when H2O2 doses were higher than 0.5 mM”.
Regarding `CC(=O)N[C@@H](CS)C(=O)O` [NAC, N-acetylcysteine, reference compound], the “Protective effect on cell viability at increasing doses of H2O2” value in data set [1] (0.5 mM NAC, H2O2 0.8-1.6 mM, 2 h) was “effectively protected from H2O2-induced oxidative damage and cell death at the highest doses tested”.

Source of the values: patent publication US20260027102A1, “QUINOLYLNITRONE DERIVATIVES FOR USE IN THE PREVENTION AND/OR TREATMENT OF HEARING LOSS” (CONSEJO SUPERIOR DE INVESTIGACIONES CIENTÍFICAS (CSIC), priority 2022, published 2026).
